Values quoted from earlier work, collected in article PMC2912428 (Bioconjugate chemistry, 2010).

Test system: SAv-Y43A
Conditions: SAv-Y43A vs WT SAv ref 21

Question: For O=C(O)CCCC[C@@H]1SC[C@@H]2NC(=O)N[C@@H]21 [biotin, D-biotin], which “lower affinity of SAv-Y43A than wild-type SAv” value is on record?
Answer: 67 fold
